Measured values: patent US20230085307A1, “PYRIDAZINONE COMPOUND AND HERBICIDE” (NISSAN CHEMICAL CORPORATION, priority 2019, published 2023)

Columns and labels:
[1] = tested on: late watergrass; assay: Test Example 1: herbicidal activity, application before weed generation under submerged conditions (Table 16, symbol A); type: in vivo, late watergrass (Echinochloa oryzicola); settings: 320 g/ha applied herbicide
In short: (§1)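 Alluvial soil was flooded to 4 cm depth, weed seeds were sown mixed and 2.5-leaf rice seedlings were transplanted. On sowing day, the compound's emulsion, diluted in water to a set dose, was applied to the water surface. Plants grew at 25–30 °C and were scored 0–5 after three weeks.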

[2] = tested on: oval-leafed pondweed; assay: Test Example 1: herbicidal activity, application before weed generation under submerged conditions (Table 16, symbol C); type: in vivo, oval-leafed pondweed (Monochoria vaginalis); settings: 320 g/ha applied herbicide
In short: as §1

[3] = tested on: Japanese bulrush; assay: Test Example 2: herbicidal activity, application during weed generation under submerged conditions (Table 17, symbol B); type: in vivo, Japanese bulrush (Schoenoplectus juncoides); settings: AAH 320 g/ha; application during weed generation, submerged conditions
In short: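 Herbicide emulsion, diluted with water to the chosen amount, is applied onto 4 cm floodwater over alluvial soil where the weeds were co-sown and raised at 25–30° C. Application timing: 1–2 leaves. Assessment: three weeks afterwards.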

[4] = tested on: barnyard grass; assay: Test Example 3: herbicidal effect by foliage application, Wagner pot (Table 18, symbol H); type: in vivo, barnyard grass (Echinochloa crus-galli)
In short: (§2)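 Plants were sown in alluvial soil held under 0.1–0.5 cm standing water and grown 14 days in a greenhouse at 25–30 °C. An emulsifiable formulation, water-diluted to the set dose, was then sprayed onto the foliage, and effects were scored three weeks later using previously defined criteria.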

[5] = tested on: rice flat sedge; assay: Test Example 3: herbicidal effect by foliage application, Wagner pot (Table 18, symbol E); type: in vivo, rice flat sedge (Cyperus iria)
In short: as §2

[6] = tested on: green foxtail; assay: Test Example 4: herbicidal effect by soil treatment (Table 19, symbol G); type: in vivo, green foxtail (Setaria viridis); settings: amount of applied herbicide 320 g/ha
In short: (§3)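 Emulsion of test compound, water-diluted to predetermined amount, sprayed on soil after sowing (seed depth ~1.5 cm, sterilized diluvial soil). Greenhouse, 25–30° C. Effect graded at three weeks post-spray.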

[7] = tested on: barnyard grass; assay: Test Example 4: herbicidal effect by soil treatment (Table 19, symbol H); type: in vivo, barnyard grass (Echinochloa crus-galli); settings: amount of applied herbicide 320 g/ha
In short: as §3

[8] = tested on: velvetleaf; assay: Test Example 4: herbicidal effect by soil treatment (Table 19, symbol M); type: in vivo, velvetleaf (Abutilon theophrasti); settings: amount of applied herbicide 320 g/ha
In short: as §3

[9] = tested on: redroot pigweed; assay: Test Example 4: herbicidal effect by soil treatment (Table 19, symbol N); type: in vivo, redroot pigweed (Amaranthus retroflexus); settings: amount of applied herbicide 320 g/ha
In short: as §3

[10] = tested on: chickweed; assay: Test Example 4: herbicidal effect by soil treatment (Table 19, symbol P); type: in vivo, common chickweed (Stellaria media); settings: amount of applied herbicide 320 g/ha
In short: as §3

[11] = tested on: southern crabgrass; assay: Test Example 5: herbicidal effect by foliage application, plastic box (Table 20, symbol F); type: in vivo, southern crabgrass (Digitaria ciliaris); settings: foliage application, evaluated three weeks after application
In short: (§4)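 Post-emergence foliar test in sterilized diluvial soil. Compound applied as water-diluted emulsion at a predetermined rate to 14-day-old plants; evaluation at three weeks.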

[12] = tested on: green foxtail; assay: Test Example 5: herbicidal effect by foliage application, plastic box (Table 20, symbol G); type: in vivo, green foxtail (Setaria viridis); settings: foliage application, evaluated three weeks after application
In short: as §4

[13] = tested on: blackgrass; assay: Test Example 5: herbicidal effect by foliage application, plastic box (Table 20, symbol J); type: in vivo, blackgrass (Alopecurus myosuroides); settings: foliage application, evaluated three weeks after application
In short: as §4

[14] = tested on: Italian ryegrass; assay: Test Example 5: herbicidal effect by foliage application, plastic box (Table 20, symbol K); type: in vivo, Italian ryegrass (Lolium multiflorum); settings: foliage application, evaluated three weeks after application
In short: as §4

[15] = tested on: redroot pigweed; assay: Test Example 5: herbicidal effect by foliage application, plastic box (Table 20, symbol N); type: in vivo, redroot pigweed (Amaranthus retroflexus); settings: foliage application, evaluated three weeks after application
In short: as §4

[16] = tested on: chickweed; assay: Test Example 5: herbicidal effect by foliage application, plastic box (Table 20, symbol P); type: in vivo, common chickweed (Stellaria media); settings: foliage application, evaluated three weeks after application
In short: as §4

[17] = amount of applied herbicide 320 g/ha

SMILES: Cc1nn(C)c(=O)c(-c2c(-c3ccc(Cl)cc3F)sc3ccc(F)cc23)c1O [2-348]
- Herbicidal effect on A: late watergrass (grade 0-5) [1]: 2 (Herbicidal rate of 20% or more and less than 40%)
- Herbicidal effect on C: oval-leafed pondweed (grade 0-5) [2]: 0 (Herbicidal rate of 5% or less (almost no effect))
- herbicidal effect rating, B: Japanese bulrush [3]: 2 (Herbicidal rate of 20% or more and less than 40%)
- herbicidal effect on H: barnyard grass [4, 17]: 5 (Herbicidal rate of 90% or more (almost completely withered))
- herbicidal effect on E: rice flat sedge [5, 17]: 5 (Herbicidal rate of 90% or more (almost completely withered))
- herbicidal effect on G: green foxtail [6]: 4 (Herbicidal rate of 70% or more and less than 90%)
- herbicidal effect on H: barnyard grass [7]: 3 (Herbicidal rate of 40% or more and less than 70%)
- herbicidal effect on M: velvetleaf [8]: 1 (Herbicidal rate of 5% or more and less than 20%)
- herbicidal effect on N: redroot pigweed [9]: 3 (Herbicidal rate of 40% or more and less than 70%)
- herbicidal effect on P: chickweed [10]: 3 (Herbicidal rate of 40% or more and less than 70%)
- F: southern crabgrass, herbicidal effect (criteria 0-5) ([11]; AAH 320 g/ha): 5 (Herbicidal rate of 90% or more (almost completely withered))
- G: green foxtail, herbicidal effect (criteria 0-5) ([12]; AAH 320 g/ha): 5 (Herbicidal rate of 90% or more (almost completely withered))
- J: blackgrass, herbicidal effect (criteria 0-5) ([13]; AAH 320 g/ha): 4 (Herbicidal rate of 70% or more and less than 90%)
- K: Italian ryegrass, herbicidal effect (criteria 0-5) ([14]; AAH 320 g/ha): 4 (Herbicidal rate of 70% or more and less than 90%)
- N: redroot pigweed, herbicidal effect (criteria 0-5) ([15]; AAH 320 g/ha): 5 (Herbicidal rate of 90% or more (almost completely withered))
- P: chickweed, herbicidal effect (criteria 0-5) ([16]; AAH 320 g/ha): 5 (Herbicidal rate of 90% or more (almost completely withered))

SMILES: CCCC(=O)Oc1c(C)nn(C)c(=O)c1-c1c(-c2ccc(Cl)cc2)sc2ccc(Cl)cc12 [2-100]
- Herbicidal effect on A: late watergrass (grade 0-5) [1]: 3 (Herbicidal rate of 40% or more and less than 70%)
- Herbicidal effect on C: oval-leafed pondweed (grade 0-5) [2]: 2 (Herbicidal rate of 20% or more and less than 40%)
- herbicidal effect rating, B: Japanese bulrush [3]: 0 (Herbicidal rate of 5% or less (almost no effect))
- herbicidal effect on H (barnyard grass), rating 0-5 ([4]; 320 g/ha): 5 (Herbicidal rate of 90% or more (almost completely withered))
- herbicidal effect on E (rice flat sedge), rating 0-5 ([5]; 320 g/ha): 3 (Herbicidal rate of 40% or more and less than 70%)
- G: green foxtail, herbicidal effect rating [6]: 0 (Herbicidal rate of 5% or less (almost no effect))
- H: barnyard grass, herbicidal effect rating [7]: 0 (Herbicidal rate of 5% or less (almost no effect))
- M: velvetleaf, herbicidal effect rating [8]: 0 (Herbicidal rate of 5% or less (almost no effect))
- N: redroot pigweed, herbicidal effect rating [9]: 4 (Herbicidal rate of 70% or more and less than 90%)
- P: chickweed, herbicidal effect rating [10]: 1 (Herbicidal rate of 5% or more and less than 20%)
- herbicidal effect on F: southern crabgrass ([11]; 320 g/ha): 4 (Herbicidal rate of 70% or more and less than 90%)
- herbicidal effect on G: green foxtail ([12]; 320 g/ha): 4 (Herbicidal rate of 70% or more and less than 90%)
- herbicidal effect on J: blackgrass ([13]; 320 g/ha): 4 (Herbicidal rate of 70% or more and less than 90%)
- herbicidal effect on K: Italian ryegrass ([14]; 320 g/ha): 5 (Herbicidal rate of 90% or more (almost completely withered))
- herbicidal effect on N: redroot pigweed ([15]; 320 g/ha): 5 (Herbicidal rate of 90% or more (almost completely withered))
- herbicidal effect on P: chickweed ([16]; 320 g/ha): 5 (Herbicidal rate of 90% or more (almost completely withered))
